The source of these data is patent US20230064983A1 (priority 2020, published 2023).

Where “and” joins values, the source holds several entries; their conditions need not be identical. Equal entries are not always repeated. Where two headings read alike, the source gives them in different places. Some results are limits rather than exact numbers.

In assay [1] the target is T1, EGFR with insertion SVD between D770 and N771 (mutEGFR D770_N771insSVD) (Homo sapiens, UniProt P00533, DUP768-770).
T1 construct: amino acids R669 to A1210; made in house; host or cells: Sf9 insect cells (baculovirus)
T1 sequence (P00533 other isoform, or with tags, fused parts or gaps DUP768-770): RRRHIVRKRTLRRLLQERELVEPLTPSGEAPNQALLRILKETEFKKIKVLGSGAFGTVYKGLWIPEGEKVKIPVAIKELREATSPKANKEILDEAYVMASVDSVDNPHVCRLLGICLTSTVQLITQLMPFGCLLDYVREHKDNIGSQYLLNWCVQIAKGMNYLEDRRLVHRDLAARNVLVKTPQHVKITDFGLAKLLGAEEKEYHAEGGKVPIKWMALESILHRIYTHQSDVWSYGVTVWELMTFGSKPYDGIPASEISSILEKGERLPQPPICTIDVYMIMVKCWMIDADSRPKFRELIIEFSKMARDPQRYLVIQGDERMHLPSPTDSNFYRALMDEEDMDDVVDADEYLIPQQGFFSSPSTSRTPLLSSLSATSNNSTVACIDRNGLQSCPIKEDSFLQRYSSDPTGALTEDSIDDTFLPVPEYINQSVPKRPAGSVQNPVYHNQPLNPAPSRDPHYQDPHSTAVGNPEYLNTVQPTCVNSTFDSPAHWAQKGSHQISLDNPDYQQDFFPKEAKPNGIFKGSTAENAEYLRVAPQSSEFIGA
The experiment in a line: Exon20-Mutant-EGFR(D770_N771insSVD) kinase assay (TR-FRET). The assay is classed as biochemical. To be noted: 2 mM ATP, Table 2. (In general: Time-resolved FRET reads energy transfer from a long-lived donor to a nearby acceptor.)

A further assay deals with T2, Bub1 (Homo sapiens, UniProt O43683).
T2 construct: catalytic domain of human Bub1 (amino acids 704-1085); His6 (N); made in house; host or cells: insect cells (Hi5)
T2 sequence (O43683 704-1085): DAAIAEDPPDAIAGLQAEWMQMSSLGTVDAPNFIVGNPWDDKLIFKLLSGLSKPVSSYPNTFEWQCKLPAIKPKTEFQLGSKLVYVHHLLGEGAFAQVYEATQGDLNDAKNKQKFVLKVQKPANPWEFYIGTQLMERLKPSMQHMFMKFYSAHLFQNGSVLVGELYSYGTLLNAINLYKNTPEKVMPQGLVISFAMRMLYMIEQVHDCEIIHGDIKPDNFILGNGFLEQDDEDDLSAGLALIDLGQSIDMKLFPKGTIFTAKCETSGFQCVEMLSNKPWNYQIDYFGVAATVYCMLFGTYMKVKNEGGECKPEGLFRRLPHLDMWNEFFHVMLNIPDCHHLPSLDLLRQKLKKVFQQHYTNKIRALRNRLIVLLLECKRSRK
The experiment in a line: Bub1 high ATP kinase assay (TR-FRET). It is filed as biochemical. The note with it: Bub1 high ATP (2 mM) IC50, TR-FRET, 2 mM ATP; Table 3. In outline:
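Enzyme was His6-tagged human Bub1 catalytic domain (aa 704-1085) from Hi5 insect cells, typically about 200 ng/ml, with a biotinylated peptide substrate at high ATP. Reaction ran 60 min at 22 °C, then was stopped with EDTA. Phosphopeptide was detected by TR-FRET (anti-phosphoserine antibody, Eu-labelled anti-mouse IgG, streptavidin-XL665), read as the 665/620 nm emission ratio.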

Assay [2] deals with Ba/F3-EGFR-D770_N771insSVD cells (Homo sapiens, UniProt P00533, DUP768-770, cells depend on it). The experiment in a line: Ba/F3 cell survival assay, EGFR D770_N771insSVD. The assay is classed as cell-based.
Sequence of Ba/F3-EGFR-D770_N771insSVD cells (P00533 with tags, fused parts or gaps DUP768-770): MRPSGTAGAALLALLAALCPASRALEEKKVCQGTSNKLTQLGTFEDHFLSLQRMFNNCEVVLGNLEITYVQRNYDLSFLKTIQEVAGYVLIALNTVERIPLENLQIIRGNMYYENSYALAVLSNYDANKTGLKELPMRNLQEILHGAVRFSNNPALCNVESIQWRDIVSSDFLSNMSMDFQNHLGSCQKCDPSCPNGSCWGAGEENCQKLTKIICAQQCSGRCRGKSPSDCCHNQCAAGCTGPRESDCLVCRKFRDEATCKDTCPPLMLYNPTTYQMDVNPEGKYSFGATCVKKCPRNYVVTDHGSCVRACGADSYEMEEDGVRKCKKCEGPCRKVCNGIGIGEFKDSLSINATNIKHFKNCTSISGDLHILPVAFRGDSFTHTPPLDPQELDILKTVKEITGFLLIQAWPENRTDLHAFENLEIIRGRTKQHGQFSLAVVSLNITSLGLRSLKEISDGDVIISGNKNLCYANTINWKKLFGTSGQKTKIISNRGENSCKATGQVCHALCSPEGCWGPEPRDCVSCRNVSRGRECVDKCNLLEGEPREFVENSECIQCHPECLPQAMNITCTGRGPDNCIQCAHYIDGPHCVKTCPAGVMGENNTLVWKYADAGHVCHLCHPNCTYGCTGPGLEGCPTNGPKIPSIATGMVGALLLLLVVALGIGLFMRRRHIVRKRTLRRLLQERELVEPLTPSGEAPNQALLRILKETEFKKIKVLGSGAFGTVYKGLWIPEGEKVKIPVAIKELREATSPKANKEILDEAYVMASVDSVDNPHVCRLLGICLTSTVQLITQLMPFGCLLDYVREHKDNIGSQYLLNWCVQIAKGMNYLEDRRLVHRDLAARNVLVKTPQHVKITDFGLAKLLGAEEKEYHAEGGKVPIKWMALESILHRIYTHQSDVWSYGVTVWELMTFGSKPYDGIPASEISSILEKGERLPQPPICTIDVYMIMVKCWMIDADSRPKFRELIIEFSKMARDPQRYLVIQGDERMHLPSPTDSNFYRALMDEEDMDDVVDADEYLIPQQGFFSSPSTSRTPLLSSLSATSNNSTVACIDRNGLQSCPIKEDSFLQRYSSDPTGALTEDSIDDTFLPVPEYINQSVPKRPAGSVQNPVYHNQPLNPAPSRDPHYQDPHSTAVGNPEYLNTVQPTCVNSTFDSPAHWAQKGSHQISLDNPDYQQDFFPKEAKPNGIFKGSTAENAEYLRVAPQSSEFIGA
In the next assay the target is Ba/F3-EGFR-WT cells (Homo sapiens, UniProt P00533). Kind of assay: Ba/F3 cell survival assay, wild type EGFR. It is filed as cell-based.
Sequence of Ba/F3-EGFR-WT cells (P00533 whole entry, looked up, stated change not applied): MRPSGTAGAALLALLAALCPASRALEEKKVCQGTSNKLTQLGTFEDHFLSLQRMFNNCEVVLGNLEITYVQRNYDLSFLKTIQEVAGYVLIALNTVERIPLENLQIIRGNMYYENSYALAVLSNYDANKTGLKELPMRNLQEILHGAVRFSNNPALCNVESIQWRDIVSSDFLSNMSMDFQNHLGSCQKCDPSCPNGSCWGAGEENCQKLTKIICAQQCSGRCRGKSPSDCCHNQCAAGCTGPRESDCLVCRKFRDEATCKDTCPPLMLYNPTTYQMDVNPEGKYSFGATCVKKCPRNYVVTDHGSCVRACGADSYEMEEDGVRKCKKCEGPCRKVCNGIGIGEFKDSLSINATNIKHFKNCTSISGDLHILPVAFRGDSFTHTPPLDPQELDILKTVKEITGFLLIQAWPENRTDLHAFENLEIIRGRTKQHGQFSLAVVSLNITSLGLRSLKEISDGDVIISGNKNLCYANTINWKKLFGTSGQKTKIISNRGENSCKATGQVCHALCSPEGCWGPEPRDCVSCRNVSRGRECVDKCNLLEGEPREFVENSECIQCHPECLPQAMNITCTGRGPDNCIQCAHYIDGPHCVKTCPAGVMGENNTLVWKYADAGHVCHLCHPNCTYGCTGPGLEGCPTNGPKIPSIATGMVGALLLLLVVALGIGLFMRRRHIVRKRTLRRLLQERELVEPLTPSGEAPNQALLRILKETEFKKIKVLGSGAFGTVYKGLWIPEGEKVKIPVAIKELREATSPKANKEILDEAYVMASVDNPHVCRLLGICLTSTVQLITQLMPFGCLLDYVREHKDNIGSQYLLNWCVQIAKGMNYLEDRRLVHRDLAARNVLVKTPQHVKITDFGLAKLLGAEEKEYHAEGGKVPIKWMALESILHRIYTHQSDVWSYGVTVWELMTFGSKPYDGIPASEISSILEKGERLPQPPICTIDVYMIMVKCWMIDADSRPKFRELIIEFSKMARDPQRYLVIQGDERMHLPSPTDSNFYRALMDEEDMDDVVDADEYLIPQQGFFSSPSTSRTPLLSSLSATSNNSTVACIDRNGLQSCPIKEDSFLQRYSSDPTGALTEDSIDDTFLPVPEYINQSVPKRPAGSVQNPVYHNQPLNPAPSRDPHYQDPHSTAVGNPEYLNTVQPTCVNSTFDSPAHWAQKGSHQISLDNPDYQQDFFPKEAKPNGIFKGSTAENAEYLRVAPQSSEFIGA
The mark [3] stands for this setting: Cell Titer-Glo, 48 h, without IL-3; Table 4; read-out: BA/F3 (insSVD) IC50.
Setting [4] is: Cell Titer-Glo, 48 h, with 10 ng/mL EGF; Table 4; read-out: BA/F3 (wild type) IC50.

A word on the IC50: it is the midpoint of a concentration-inhibition curve. A high value points to weaker potency in that assay. With `COc1c(Cl)cccc1Nc1c(-c2ccncc2OCC2CCCCO2)[nH]c2c1C(=O)NCC2C` (centres unmarked) [Example 44, 3-(3-chloro-2-methoxy-anilino)-7-methyl-2-[3-(tetrahydropyran-2-ylmethoxy)-4-pyridyl]-1,5,6,7-tetrahydropyrrolo[3,2-c]pyridin-4-one], the “mutEGFR (D770_N771insSVD) kinase assay IC50” value (“mutEGFR” for short) in assay [1] was determined as 0.195 nM. For the same compound, inhibition at Bub1 was half-maximal at 6450 nM (IC50). In addition, the GI50 in assay [2] (setting [3]) was 40.5 nM; at Ba/F3-EGFR-WT cells (setting [4]), 594 nM.
For `COCC(C)Oc1cnccc1-c1[nH]c2c(c1Nc1cccc(Cl)c1OC)C(=O)N[C@@H]1CCC[C@H]21` (stereo partly drawn) [Example 49, (5aR,8aS)-3-(3-chloro-2-methoxyanilino)-2-{3-[(1-methoxypropan-2-yl)oxy]-4-pyridyl}-5,5a,6,7,8,8a-hexahydrocyclopenta[b]pyrrolo[2,3-d]pyridin-4(1)-one], in that order: 0.275 nM, 13200 nM, 33.1 nM and 291 nM.
For the compound `COc1c(Cl)cccc1Nc1c(-c2ccncc2OC[C@@H]2CCCO2)[nH]c2c1C(=O)N[C@@H]1CCC[C@H]21` [Example 56, (5aR,8aS)-3-(3-chloro-2-methoxyanilino)-2-(3-{[(2S)-oxolan-2-yl]methoxy}-4-pyridyl)-5,5a,6,7,8,8a-hexahydrocyclopenta[b]pyrrolo[2,3-d]pyridin-4(1H)-one], the “mutEGFR” value in assay [1] turned out to be 0.194 nM. Also, the IC50 on Bub1 is 18500 nM and 18800 nM and > 20000 nM. The GI50 in assay [2] (setting [3]) was determined as 51.5 nM; on Ba/F3-EGFR-WT cells (setting [4]) it was 693 nM.
As for `COc1c(Cl)cccc1Nc1c(-c2ccncc2OC[C@@H]2CCCO2)[nH]c2c1C(=O)N[C@H]1CCC[C@@H]21` [Example 57, (5aS,8aR)-3-(3-chloro-2-methoxyanilino)-2-(3-{[(2S)-oxolan-2-yl]methoxy}pyridin-4-yl)-5,5a,6,7,8,8a-hexahydrocyclopenta[b]pyrrolo[2,3-d]pyridin-4(1)-one], the “mutEGFR” value in assay [1] came to 0.246 nM. Besides, 281 nM corresponded to half-maximal inhibition against Bub1 (IC50). For the same compound, the GI50 in assay [2] (setting [3]) was 195 nM; on Ba/F3-EGFR-WT cells (setting [4]), 1710 nM.
The matching figures for `Cc1c(Cl)cccc1Nc1c(-c2ccncc2OCC2OCCCC2(F)F)[nH]c2c1C(=O)NCC2C` (centres unmarked) [Example 61, 3-(3-chloro-2-methyl-anilino)-2-[3-[(3,3-difluorotetrahydropyran-2-yl)methoxy]-4-pyridyl]-7-methyl-1,5,6,7-tetrahydropyrrolo[3,2-c]pyridin-4-one]: 0.19 nM, 2700 nM, 20.5 nM and 534 nM.
On to `Cc1c(Cl)cccc1Nc1c(-c2ccncc2OCC2COC(C)(C)CO2)[nH]c2c1C(=O)NCC2C` (centres unmarked) [Example 62, 3-(3-chloro-2-methyl-anilino)-2-[3-[(5,5-dimethyl-1,4-dioxan-2-yl)methoxy]-4-pyridyl]-7-methyl-1,5,6,7-tetrahydropyrrolo[3,2-c]pyridin-4-one], for which the “mutEGFR” value in assay [1] is 0.329 nM. This compound came in with an IC50 on Bub1 of 8030 nM. For the same compound, the GI50 was 52.6 nM in assay [2] (setting [3]) and 1100 nM on Ba/F3-EGFR-WT cells (setting [4]).
For the compound `C[C@@H]1Cc2[nH]c(-c3ccncc3OC[C@@H]3CCCO3)c(Nc3cccc(F)c3CC(F)F)c2C(=O)N1` [Example 63, (6R)-3-[2-(2,2-difluoroethyl)-3-fluoroanilino]-6-methyl-2-(3-{[(2S)-oxolan-2-yl]methoxy}pyridin-4-yl)-1,5,6,7-tetrahydro-4H-pyrrolo[3,2-c]pyridin-4-one], the “mutEGFR” value in assay [1] stood at 0.211 nM. Also, on Bub1, 14100 nM corresponded to half-maximal inhibition (IC50). Further, the GI50 came to 117 nM in assay [2] (setting [3]) and 1170 nM on Ba/F3-EGFR-WT cells (setting [4]).
On to `COc1c(Cl)cccc1Nc1c(-c2ccncc2OC[C@@H]2CN(C)CCO2)[nH]c2c1C(=O)N[C@@H]1CCC[C@H]21` [Example 64, (5aR,8aS)-3-(3-chloro-2-methoxyanilino)-2-(3-{[(2S)-4-methylmorpholin-2-yl]methoxy}pyridin-4-yl)-5,5a,6,7,8,8a-hexahydrocyclopenta[b]pyrrolo[2,3-d]pyridin-4(1H)-one], for which the “mutEGFR” value in assay [1] was 0.361 nM. Further, the IC50 at Bub1 is > 20000 nM. For the same compound, the results for the GI50 (in assay [2] (setting [3]); on Ba/F3-EGFR-WT cells (setting [4])) were 47.6 nM and 643 nM, respectively.
On to `COC(C)(C)COc1cnccc1-c1[nH]c2c(c1Nc1cccc(F)c1CC(F)F)C(=O)N[C@H](C)C2` [Example 65, (6R)-3-[2-(2,2-difluoroethyl)-3-fluoroanilino]-2-[3-(2-methoxy-2-methylpropoxy)pyridin-4-yl]-6-methyl-1,5,6,7-tetrahydro-4H-pyrrolo[3,2-c]pyridin-4-one], for which the “mutEGFR” value in assay [1] was found to be 0.24 nM. Besides, the half-inhibitory concentration (IC50) against Bub1 was 2520 nM. The GI50 in assay [2] (setting [3]) was 72 nM; at Ba/F3-EGFR-WT cells (setting [4]), 795 nM.
For the compound `Cc1c(Cl)cccc1Nc1c(-c2ccncc2OCC2COCCO2)[nH]c2c1C(=O)NCC2C` (centres unmarked) [Example 66, 3-(3-chloro-2-methyl-anilino)-2-[3-(1,4-dioxan-2-ylmethoxy)-4-pyridyl]-7-methyl-1,5,6,7-tetrahydropyrrolo[3,2-c]pyridin-4-one], the “mutEGFR” value in assay [1] was 0.145 nM. The concentration for half-maximal inhibition (IC50) against Bub1 is 1730 nM. Also, the GI50 was found to be 42.8 nM in assay [2] (setting [3]) and 766 nM on Ba/F3-EGFR-WT cells (setting [4]).
The matching figures for `COc1c(Cl)cccc1Nc1c(-c2ccncc2OCCC2CCCCO2)[nH]c2c1C(=O)N[C@H](C)C2` (stereo partly drawn) [Example 86, (6R)-3-(3-chloro-2-methoxy-anilino)-6-methyl-2-[3-(2-tetrahydropyran-2-ylethoxy)-4-pyridyl]-1,5,6,7-tetrahydropyrrolo[3,2-c]pyridin-4-one]: 0.261 nM, 2400 nM, 19.3 nM and 480 nM.
On to `CCc1c(Cl)cccc1Nc1c(-c2ccncc2OC[C@@H]2CN(C)CCO2)[nH]c2c1C(=O)N[C@H](C)C2` [Example 91, (6R)-3-(3-chloro-2-ethylanilino)-6-methyl-2-(3-{[(2S)-4-methylmorpholin-2-yl]methoxy}pyridin-4-yl)-1,5,6,7-tetrahydro-4H-pyrrolo[3,2-c]pyridin-4-one], for which the “mutEGFR” value in assay [1] is 0.334 nM. The IC50 on Bub1 is > 20000 nM. Moreover, the GI50 came out at 30.2 nM in assay [2] (setting [3]) and 556 nM on Ba/F3-EGFR-WT cells (setting [4]).
For `COc1c(Cl)cccc1Nc1c(-c2ccncc2OCC[C@@H]2CCCO2)[nH]c2c1C(=O)N[C@H](C)C2` [Example 92, (6R)-3-(3-chloro-2-methoxyanilino)-6-methyl-2-(3-{2-[(2S)-oxolan-2-yl]ethoxy}pyridin-4-yl)-1,5,6,7-tetrahydro-4H-pyrrolo[3,2-c]pyridin-4-one], in that order: 0.243 nM, 1980 nM, 20.2 nM and 519 nM.
For `COc1c(Cl)cccc1Nc1c(-c2ccncc2OC[C@@H]2COCCN2C)[nH]c2c1C(=O)N[C@H](C)C2` [Example 93, (6R)-3-(3-chloro-2-methoxyanilino)-6-methyl-2-(3-{[(3S)-4-methylmorpholin-3-yl]methoxy}pyridin-4-yl)-1,5,6,7-tetrahydro-4H-pyrrolo[3,2-c]pyridin-4-one], in that order: 0.4 nM, 5420 nM, 8.67 nM and 254 nM.
In the case of `Cc1c(Cl)cccc1Nc1c(-c2ccncc2OCC2COCCO2)[nH]c2c1C(=O)N[C@H](C)C2` (stereo partly drawn) [Example 102, (6R)-3-(3-chloro-2-methylanilino)-2-{3-[(1,4-dioxan-2-yl)methoxy]pyridin-4-yl}-6-methyl-1,5,6,7-tetrahydro-4H-pyrrolo[3,2-c]pyridin-4-one], the “mutEGFR” value in assay [1] is 0.121 nM. On Bub1, this compound registered an IC50 of 1030 nM. Further, the GI50 in assay [2] (setting [3]) was 38.7 nM; on Ba/F3-EGFR-WT cells (setting [4]) it was 869 nM.
With `Cc1c(Cl)cccc1Nc1c(-c2ccncc2OC[C@@H]2COCCO2)[nH]c2c1C(=O)N[C@H](C)C2` [Example 103, (6R)-3-(3-chloro-2-methylanilino)-2-(3-{[(2S)-1,4-dioxan-2-yl]methoxy}pyridin-4-yl)-6-methyl-1,5,6,7-tetrahydro-4H-pyrrolo[3,2-c]pyridin-4-one], in assay [1], the “mutEGFR” value worked out at 0.184 nM. The compound also showed an IC50 against Bub1 of 1650 nM. Besides, the GI50 in assay [2] (setting [3]) was determined as 32.2 nM; at Ba/F3-EGFR-WT cells (setting [4]) it was 529 nM.
Consider `Cc1c(Cl)cccc1Nc1c(-c2ccncc2OC[C@@H]2CCCO2)[nH]c2c1C(=O)N[C@H](C)C2` [Example 104, (6R)-3-(3-chloro-2-methylanilino)-6-methyl-2-(3-{[(2S)-oxolan-2-yl]methoxy}pyridin-4-yl)-1,5,6,7-tetrahydro-4H-pyrrolo[3,2-c]pyridin-4-one], for which the “mutEGFR” value in assay [1] turned out to be 0.162 nM. On Bub1, this compound came in with an IC50 of 3630 nM. Besides, the GI50 in assay [2] (read-out: BA/F3 (insSVD) IC50; Cell Titer-Glo, 48 h, without IL-3; Table 4) amounted to 32.3 nM; on Ba/F3-EGFR-WT cells (read-out: BA/F3 (wild type) IC50; Cell Titer-Glo, 48 h, with 10 ng/mL EGF; Table 4), 983 nM.
